Reference: patent publication US20240269298A1, “PHOSPHONYL DERIVATIVE, AND COMPOSITION AND PHARMACEUTICAL APPLICATION THEREOF” (XIZANG HAISCO PHARMACEUTICAL CO., LTD., priority 2021, published 2024)
Read-outs that look alike come from different tables or passages of the source.

Key:
[1] = tested on: NCI-H1975 (EGFR-L858R-T790M) cells; assay: Inhibitory activity on proliferation of NCI-H1975 (EGFR-L858R-T790M) cells (CTG, 72 h); type: cell-based; details: Homo sapiens
Outline: (§1)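 Cells plated at 1000/well (NCI-H1975, RPMI1640+10% FBS) or 3000/well (A431, DMEM+10% FBS), dosed next day with compounds (0.1% DMSO final) for 72 h at 37 °C, 5% CO2. Viability by CTG luminescence, normalised to vehicle control; IC50 from nonlinear-regression dose-survival curves.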

[2] = tested on: A431 (EGFR-WT) cells; assay: Inhibitory activity on proliferation of A431 (EGFR-WT) cells (CTG, 72 h); type: cell-based; details: Homo sapiens, A-431
Outline: as §1

[3] = tested on: NCI-H1975 EGFR-L858R-T790M-C797S cells; assay: Inhibitory activity on proliferation of NCI-H1975 EGFR-L858R-T790M-C797S cells (CellTiter-Glo, 72 h); type: cell-based; details: Homo sapiens
Outline: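 Cells (1500/well) exposed to graded compound concentrations for 72 h at 37 °C in hygromycin-free RPMI1640 + 10% FBS, 0.1% DMSO vehicle. Viability by CellTiter-Glo luminescence relative to vehicle; IC50 from nonlinear sigmoidal dose-survival fit.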

[4] = Pharmacokinetic test in mice; type: in vivo; details: male, ICR, mouse, po, administration i.g. (10 mg/kg), plasma
Outline: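 Male ICR mice (20-25 g), fasted 12-14 h before dosing and fed 4 h after, received a single intravenous or intragastric dose. Orbital plasma sampled from 0 to 24 h (5 min-24 h points); LC-MS/MS quantitation for PK parameters and bioavailability.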

[5] = biological target: T1, EGFR protein in NCI-H1975 EGFR-L858R-T790M-C797S cells (Homo sapiens, UniProt P00533, C797S/L858R/T790M); assay: Degradation activity on EGFR protein in NCI-H1975 EGFR-L858R-T790M-C797S cells, Method II (western blot, 48 h); type: cell-based; details: 48 h incubation, EGFR protein relative to DMSO control
T1 construct: expressed in transfected cells; host or cells: NCI-H1975 EGFR-L858R-T790M-C797S (kept under hygromycin selection)
Description: (§2) Protein sample preparation: NCI-H1975 EGFR-L858R-T790M-C797S cells were cultured in an incubator at 37° C. with 5% CO2, and the culture medium was RPMI1640+10% FBS+100 μg/mL hygromycin. The cells in the logarithmic phase were collected, and the cell suspension was adjusted to an appropriate concentration with a hygromycin-free culture medium, plated on a 6-well plate at a density of 350000 cells/well and a volume of 2 mL, and cultured overnight in an incubator at 37° C. with 5% CO2. The next day, the compounds at different concentrations were added. DMSO control wells were provided, wherein the concentration of DMSO in all wells was 0.1%. The 6-well plate was cultured in an incubator at 37° C. with 5% CO2 for 48 h, and then 30 μL of RIPA lysates (Beyotime, Cat. P0013B) containing protease inhibitors (Beyotime, Cat. P0013B) were added. The mixtures were lysed on ice for 30 min. Centrifugation was carried out at 13000 rpm/min at 4° C. for 20 minutes to collect protein supernatant samples, and protein quantification was performed by the BCA method. Western Blot detection samples were prepared.
(§3) Western blot detection: 20 μg of protein samples were added to each well, subjected to polyacrylamide gel electrophoresis and transferred to a membrane, and then diluted anti-EGFR (CST, Cat. 4267S) and […] (Kangchen, Cat. KC-5G4) antibodies were added and incubated overnight at 4° C. After washing the membrane, diluted goat anti-rabbit (Licor, Cat. 926-32211) and goat anti-mouse (Licor, Cat. 926-68070) antibodies were added and incubated in the dark for 45 min. Scanning and detection at wavelengths of 700 nm and 800 nm were performed with a far-infrared imaging system (Odyssey).
(§4) According to formula (3), the expression level of EGFR protein in the cells relative to the DMSO control group was calculated after incubation with different concentrations of compounds. wherein EGFRcompound was the fluorescence value of EGFR protein after incubation with compounds, and EGFRvehicle was the fluorescence value of EGFR protein in the DMSO control group. Using the Origin 9.2 software, the drug concentration DC50 values when the expression level of EGFR protein was 50% relative to the DMSO control group were calculated.

[6] = biological target: T1, EGFR protein in NCI-H1975 EGFR-L858R-T790M-C797S cells; assay: Degradation activity on EGFR protein in NCI-H1975 EGFR-L858R-T790M-C797S cells, Method I (western blot, 72 h); type: cell-based; details: 72 h incubation, EGFR protein relative to DMSO control
Description: as §2, with “200000” for “350000”, “72” for “48”, “min” for “minutes”, “Samples for western blot” for “Western Blot”, “detection” for “detection samples”
as §3, §4

[7] = read-out: IC50 (value in brackets)

T1 sequence (P00533 25-1210 T790M/C797S/L858R): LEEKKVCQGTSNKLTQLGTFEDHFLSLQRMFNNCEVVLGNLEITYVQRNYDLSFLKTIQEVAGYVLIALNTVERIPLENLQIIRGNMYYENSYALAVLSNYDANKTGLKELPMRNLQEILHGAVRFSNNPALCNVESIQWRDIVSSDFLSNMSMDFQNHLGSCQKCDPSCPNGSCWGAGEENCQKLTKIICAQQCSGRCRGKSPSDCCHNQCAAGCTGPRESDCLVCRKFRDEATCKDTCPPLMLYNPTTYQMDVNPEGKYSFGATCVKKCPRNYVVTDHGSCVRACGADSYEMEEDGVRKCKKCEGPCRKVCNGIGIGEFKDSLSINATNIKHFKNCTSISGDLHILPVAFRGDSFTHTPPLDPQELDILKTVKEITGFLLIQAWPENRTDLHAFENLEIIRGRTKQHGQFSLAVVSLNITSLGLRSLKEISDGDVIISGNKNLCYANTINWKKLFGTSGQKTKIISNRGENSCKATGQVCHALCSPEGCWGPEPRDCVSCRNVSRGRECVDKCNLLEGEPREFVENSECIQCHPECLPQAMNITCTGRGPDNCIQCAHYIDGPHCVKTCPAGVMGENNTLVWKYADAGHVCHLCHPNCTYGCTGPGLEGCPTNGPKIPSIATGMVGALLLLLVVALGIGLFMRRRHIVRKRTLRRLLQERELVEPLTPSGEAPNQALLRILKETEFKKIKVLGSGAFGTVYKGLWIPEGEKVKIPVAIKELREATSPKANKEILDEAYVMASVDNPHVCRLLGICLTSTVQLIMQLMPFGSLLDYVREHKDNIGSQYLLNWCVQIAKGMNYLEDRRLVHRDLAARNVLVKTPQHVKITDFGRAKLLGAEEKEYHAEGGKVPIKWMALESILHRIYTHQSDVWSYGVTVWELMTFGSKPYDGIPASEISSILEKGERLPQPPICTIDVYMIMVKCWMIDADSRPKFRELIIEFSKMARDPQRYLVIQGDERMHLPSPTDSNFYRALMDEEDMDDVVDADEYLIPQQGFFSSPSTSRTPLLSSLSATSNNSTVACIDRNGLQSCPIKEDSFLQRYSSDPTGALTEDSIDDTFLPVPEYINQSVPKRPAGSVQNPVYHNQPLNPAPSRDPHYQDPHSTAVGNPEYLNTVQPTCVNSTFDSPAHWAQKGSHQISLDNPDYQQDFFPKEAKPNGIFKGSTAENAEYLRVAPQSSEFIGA

SMILES | IC50 ([1]; read-out: IC50 (class symbol)) [nM] | IC50 [1, 7] [nM] | IC50 [2] [nM] | IC50 ([3]; read-out: IC50 (class symbol)) [nM] | IC50 ([3]; read-out: IC50 (value)) [nM] | AUC(0-t) [4] [ng·h/mL] | DC50 [5] [nM] | AUC [4] [ng·h/mL] | half-life [4] [h] | DC50 [6] [nM]
COc1cc(N2CCN(C[C@H]3CCN(c4ccc5c(c4)C(=O)N(C4CCC(=O)NC4=O)C5=O)C3)CC2)c(-c2cnn(C)c2)cc1Nc1ncc(Br)c(Nc2ccc(-c3ccccc3F)cc2P(C)(C)=O)n1 (stereo partly drawn) [Compound 117, 5-((R)-3-((4-(4-((5-bromo-4-((3-(dimethylphosphoryl)-2′-fluoro-[1,1′-biphenyl]-4-yl)amino)pyrimidin-2-yl)amino)-5-methoxy-2-(1-methyl-1H-pyrazol-4-yl)phenyl)piperazin-1-yl)methyl)pyrrolidin-1-yl)-2-(2,6-dioxopiperidin-3-yl)isoindoline-1,3-dione] | < 100 | 51 | ≥ 10000 | < 200 | 79 | 101000 | < 100 |  |  | 
COc1cc(N2CCN(C[C@@H]3CCN(c4ccc5c(c4)C(=O)N(C4CCC(=O)NC4=O)C5=O)C3)CC2)c(-c2cnn(C)c2)cc1Nc1ncc(Br)c(Nc2ccc(-c3ccccc3F)cc2P(C)(C)=O)n1 (stereo partly drawn) [Compound 116, 5-((S)-3-((4-(4-((5-bromo-4-((3-(dimethylphosphoryl)-2′-fluoro-[1,1′-biphenyl]-4-yl)amino)pyrimidin-2-yl)amino)-5-methoxy-2-(1-methyl-1H-pyrazol-4-yl)phenyl)piperazin-1-yl)methyl)pyrrolidin-1-yl)-2-(2,6-dioxopiperidin-3-yl)isoindoline-1,3-dione] | < 100 | 94 | ≥ 10000 |  |  |  | < 100 |  |  | 
COc1cc(N2CCC(CN3CCN(c4ccc5c(c4)C(=O)N(C4CCC(=O)NC4=O)C5=O)CC3)CC2)c(-c2cnn(C)c2)cc1Nc1ncc(Br)c(Nc2ccccc2P(C)(C)=O)n1 (stereo not shown) [Compound 108, 5-(4-((1-(4-((5-bromo-4-((2-(dimethylphosphoryl)phenyl)amino)pyrimidin-2-yl)amino)-5-methoxy-2-(1-methyl-1H-pyrazol-4-yl)phenyl)piperidin-4-yl)methyl)piperazin-1-yl)-2-(2,6-dioxopiperidin-3-yl)isoindoline-1,3-dione] | < 100 | 42 | ≥ 10000 | < 200 | 135 |  | < 100 | 71000 | 4.83 | 
COc1cc(N2CCC(N3CCN(c4ccc5c(c4)C(=O)N(C4CCC(=O)NC4=O)C5=O)CC3)CC2)c(-c2cnn(C)c2)cc1Nc1ncc(Cl)c(Nc2ccc(C3CC3)cc2P(C)(C)=O)n1 (stereo not shown) [Compound 113, 5-(4-(1-(4-((5-chloro-4-((4-cyclopropyl-2-(dimethylphosphoryl)phenyl)amino)pyrimidin-2-yl)amino)-5-methoxy-2-(1-methyl-1H-pyrazol-4-yl)phenyl)piperidin-4-yl)piperazin-1-yl)-2-(2,6-dioxopiperidin-3-yl)isoindoline-1,3-dione] | < 100 | 68 | ≥ 10000 |  |  |  | < 100 |  |  | 
COc1cc(N2CCN(C[C@@H]3CCN(c4ccc5c(c4)C(=O)N(C4CCC(=O)NC4=O)C5=O)C3)CC2)c(-c2cnn(C)c2)cc1Nc1ncc(Br)c(Nc2ccc(-c3ccccc3)cc2P(C)(C)=O)n1 (stereo partly drawn) [Compound 103, 5-((S)-3-((4-(4-((5-bromo-4-((3-(dimethylphosphoryl)-[1,1′-biphenyl]-4-yl)amino)pyrimidin-2-yl)amino)-5-methoxy-2-(1-methyl-1H-pyrazol-4-yl)phenyl)piperazin-1-yl)methyl)pyrrolidin-1-yl)-2-(2,6-dioxopiperidin-3-yl)isoindoline-1,3-dione] | < 100 | 61 | ≥ 10000 | < 200 | 101 | 34700 | < 100 |  |  | 
COc1cc(N2CCC(N3CCN(c4ccc5c(c4)C(=O)N(C4CCC(=O)NC4=O)C5=O)CC3)CC2)c(-c2cnn(C)c2)cc1Nc1ncc(Br)c(Nc2ccc(C3CC3)cc2P(C)(C)=O)n1 (stereo not shown) [Compound 112, 5-(4-(1-(4-((5-bromo-4-((4-cyclopropyl-2-(dimethylphosphoryl)phenyl)amino)pyrimidin-2-yl)amino)-5-methoxy-2-(1-methyl-1H-pyrazol-4-yl)phenyl)piperidin-4-yl)piperazin-1-yl)-2-(2,6-dioxopiperidin-3-yl)isoindoline-1,3-dione] | < 100 | 83 | ≥ 10000 | < 200 | 127 |  | < 100 |  |  | 
COc1cc(N2CCN(CC3CCN(c4ccc5c(c4)C(=O)N(C4CCC(=O)NC4=O)C5=O)CC3)CC2)c(-c2cnn(C)c2)cc1Nc1ncc(Cl)c(Nc2ccc(-c3ccccc3)cc2P(C)(C)=O)n1 (stereo not shown) [Compound 90, 5-(4-((4-(4-((5-chloro-4-((3-(dimethylphosphoryl)-[1,1′-biphenyl]-4-yl)amino)pyrimidin-2-yl)amino)-5-methoxy-2-(1-methyl-1H-pyrazol-4-yl)phenyl)piperazin-1-yl)methyl)piperidin-1-yl)-2-(2,6-dioxopiperidin-3-yl)isoindoline-1,3-dione] | < 100 | 46 | ≥ 10000 | < 200 | 68 |  |  | 35900 | 4.16 | < 100
COc1cc(N2CCC(CN3CCN(c4ccc5c(c4)C(=O)N(C4CCC(=O)NC4=O)C5=O)CC3)CC2)c(-c2cnn(C)c2)cc1Nc1ncc(Cl)c(Nc2ccccc2P(C)(C)=O)n1 (stereo not shown) [Compound 109, 5-(4-((1-(4-((5-chloro-4-((2-(dimethylphosphoryl)phenyl)amino)pyrimidin-2-yl)amino)-5-methoxy-2-(1-methyl-1H-pyrazol-4-yl)phenyl)piperidin-4-yl)methyl)piperazin-1-yl)-2-(2,6-dioxopiperidin-3-yl)isoindoline-1,3-dione] | < 100 | 52 | ≥ 10000 |  |  |  | < 100 | 81500 | 4.53 | 
COc1cc(N2CCN(CC3CCN(c4ccc5c(c4)C(=O)N(C4CCC(=O)NC4=O)C5=O)C3)CC2)c(-c2cnn(C)c2)cc1Nc1ncc(Br)c(Nc2ccc(-c3ccccc3)cc2P(C)(C)=O)n1 (stereo not shown) [Compound 67, 5-(3-((4-(4-((5-bromo-4-((3-(dimethylphosphoryl)-[1,1′-biphenyl]-4-yl)amino)pyrimidin-2-yl)amino)-5-methoxy-2-(1-methyl-1H-pyrazol-4-yl)phenyl)piperazin-1-yl)methyl)pyrrolidin-1-yl)-2-(2,6-dioxopiperidin-3-yl)isoindoline-1,3-dione] | < 100 | 37 | ≥ 10000 | < 200 | 115 |  |  | 70900 | 3.86 | < 100
